Measurements: patent US9809623B2, “α4β7 peptide monomer and dimer antagonists” (Protagonist Therapeutics, Inc., priority 2014, dated 2017)
Numbered stars: 1 amine (or outer) side, 2 acyl side, 3 side chain; on linkers, the order of the positions; unused ones are H or OH. Bridge positions count the residues as written; N and C are the ends. Square brackets hold non-standard residues; d marks the D form. Peptide text beside a SMILES is read from it. I, II: the chains in the order shown. X1 = O=C(CCOCCOCCOCCOCCOCCOCCOCCOCCOCCOCCOCCOCCOCCOCCOCCOCCOCCOCCOCCOCCOCCOCCOCCOCCOCCOCCC(=O)[*:2])[*:1]; X4 = O=C(CCOCCOCCOCCOCCOCCOCCOCCOCCOCCOCCOCCOCCOCCOCCC(=O)[*:2])[*:1]; d1Nal = N[C@H](Cc1cccc2ccccc12)C(=O)O; d2Nal = N[C@H](Cc1ccc2ccccc2c1)C(=O)O; Diglycolyl = O=C(COCC(=O)[*:2])[*:1]; NMeR = CN[C@@H](CCCNC(=N)N)C(=O)O; NMeE = CN[C@@H](CCC(=O)O)C(=O)O; Pen = CC(C)(S)[C@H](N)C(=O)O

Molecular target: α4β7 (Homo sapiens, UniProt P13612+P26010)
Sequence (P13612 34-1032): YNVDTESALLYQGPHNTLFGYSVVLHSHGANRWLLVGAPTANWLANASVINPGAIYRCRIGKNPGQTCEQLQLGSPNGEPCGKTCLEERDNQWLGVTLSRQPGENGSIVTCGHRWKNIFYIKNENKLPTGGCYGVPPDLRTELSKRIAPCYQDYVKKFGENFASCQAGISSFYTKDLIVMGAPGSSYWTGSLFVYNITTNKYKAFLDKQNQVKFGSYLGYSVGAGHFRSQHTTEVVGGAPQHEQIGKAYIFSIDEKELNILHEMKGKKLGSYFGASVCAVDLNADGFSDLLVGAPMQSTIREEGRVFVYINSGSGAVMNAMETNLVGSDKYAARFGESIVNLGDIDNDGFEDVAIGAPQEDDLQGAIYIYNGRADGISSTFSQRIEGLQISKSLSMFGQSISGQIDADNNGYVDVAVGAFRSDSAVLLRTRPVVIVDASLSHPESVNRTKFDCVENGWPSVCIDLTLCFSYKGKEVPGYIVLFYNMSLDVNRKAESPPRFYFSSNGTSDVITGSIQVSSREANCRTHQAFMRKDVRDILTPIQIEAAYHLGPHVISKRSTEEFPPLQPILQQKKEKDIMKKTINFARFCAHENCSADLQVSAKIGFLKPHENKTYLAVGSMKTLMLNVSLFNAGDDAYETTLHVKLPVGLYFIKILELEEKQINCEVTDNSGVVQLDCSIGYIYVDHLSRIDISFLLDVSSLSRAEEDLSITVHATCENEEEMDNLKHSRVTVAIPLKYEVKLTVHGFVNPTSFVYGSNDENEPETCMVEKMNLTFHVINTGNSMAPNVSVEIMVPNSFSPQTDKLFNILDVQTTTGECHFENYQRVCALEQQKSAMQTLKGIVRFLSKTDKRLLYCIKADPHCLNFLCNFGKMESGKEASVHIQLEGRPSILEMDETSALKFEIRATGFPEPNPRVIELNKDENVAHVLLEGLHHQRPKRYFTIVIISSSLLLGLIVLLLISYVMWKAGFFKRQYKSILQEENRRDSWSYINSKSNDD
Sequence (P26010 20-798): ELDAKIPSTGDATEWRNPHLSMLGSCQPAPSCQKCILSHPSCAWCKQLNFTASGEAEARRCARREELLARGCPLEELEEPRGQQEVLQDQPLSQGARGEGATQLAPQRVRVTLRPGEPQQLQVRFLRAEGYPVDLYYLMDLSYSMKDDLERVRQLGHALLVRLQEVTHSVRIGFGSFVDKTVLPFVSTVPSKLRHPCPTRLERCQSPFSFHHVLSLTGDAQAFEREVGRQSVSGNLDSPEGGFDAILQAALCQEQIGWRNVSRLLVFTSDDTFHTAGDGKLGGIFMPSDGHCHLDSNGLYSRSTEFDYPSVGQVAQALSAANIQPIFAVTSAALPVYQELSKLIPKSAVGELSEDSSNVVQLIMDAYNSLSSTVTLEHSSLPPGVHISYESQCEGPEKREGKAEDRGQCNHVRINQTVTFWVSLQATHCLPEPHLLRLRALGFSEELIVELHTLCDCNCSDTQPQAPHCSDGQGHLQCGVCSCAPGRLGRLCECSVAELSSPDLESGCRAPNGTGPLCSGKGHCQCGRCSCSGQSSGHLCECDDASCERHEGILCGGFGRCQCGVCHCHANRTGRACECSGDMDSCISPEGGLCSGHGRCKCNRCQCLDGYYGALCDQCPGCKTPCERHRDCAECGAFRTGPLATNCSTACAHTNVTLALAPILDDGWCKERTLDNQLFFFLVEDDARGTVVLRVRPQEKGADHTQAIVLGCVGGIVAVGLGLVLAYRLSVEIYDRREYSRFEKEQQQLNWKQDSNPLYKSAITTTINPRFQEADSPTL
Assay: α4β7-MAdCAM Cell Adhesion Assay (RPMI 8866 human cells)
Assay type: cell-based
Design: host or cells: RPMI 8866 human B lymphoblastoid cells
Conditions: Table 3-B, Potency (α4β7); range classes; read-out: α4β7 cell (Hu) IC50
Description: RPMI 8866 human cells (Sigma #95041316) were cultured in RPMI 1640 HEPES medium (Invitrogen #22400-089) supplemented with 10% serum (Fetal Bovine Serum, Invitrogen #16140-071), 1 mM sodium pyruvate (Invitrogen #11360-070), 2 mM L-glutamine (Invitrogen #25030-081) and Penicillin-Streptomycin (Invitrogen #15140-122) at 100 units of penicillin and 100 μg of streptomycin per ml. The cells were washed two times in DMEM medium (ATCC #30-2002) supplemented with 0.1% BSA, 10 mM HEPES pH 7 and 1 mM MnCl2. The cells were re-suspended in supplemented DMEM medium at a density of 4×10^6 cells/ml.
A Nunc MaxiSorp plate was coated with rh MAdCAM-1/Fc Chimera (R&D #6065-MC) at 200 ng per well in 50 ul per well in 1×PBS and incubated at 4° C. overnight. The solution was then removed by shaking, blocked with 250 ul per well PBS containing 1% BSA, and incubated at 37° C. for 1 hr. The solution was removed by shaking. Peptides were diluted by serial dilution in a final volume of 50 ul per well (2× concentration). To each well, 50 ul of cells (200,000 cells) were added and the plate was incubated at 37° C., 5% CO2 for 30-45 min to allow cell adhesion. The wells were washed manually three times (100 ul per wash) with supplemented DMEM. After the final wash, 100 ul/well of supplemented DMEM and 10 ul/well of MTT reagent (ATTC cat#30-1010K) were added. The plate was incubated at 37° C., 5% CO2 for 2-3 hrs until a purple precipitate was visible. 100 ul of Detergent Reagent (ATTC cat#30-1010K) was added to each well. The plate was covered from the light, wrapped in Parafilm to prevent evaporation, and left overnight at room temperature in the dark. The plate was shaken for 5 min and the absorbance at 570 nm was measured. To calculate the dose response, the absorbance value of control wells not containing cells was subtracted from each test well.

## CC(=O)N[C@@H]1C(=O)N(C)[C@@H](CCCNC(=N)N)C(=O)N[C@@H](CO)C(=O)N[C@@H](CC(=O)O)C(=O)N[C@@H]([C@@H](C)O)C(=O)N[C@@H](CC(C)C)C(=O)N[C@H](C(=O)N[C@@H](Cc2c[nH]cn2)C(=O)N[C@@H](CCC(=O)O)C(=O)N[C@H](CCCCNC(=O)COCC(=O)NCCCC[C@@H](NC(=O)[C@H](CCC(=O)O)NC(=O)[C@H](Cc2c[nH]cn2)NC(=O)[C@H]2NC(=O)[C@H](CC(C)C)NC(=O)[C@H]([C@@H](C)O)NC(=O)[C@H](CC(=O)O)NC(=O)[C@H](CO)NC(=O)[C@H](CCCNC(=N)N)N(C)C(=O)[C@@H](NC(C)=O)C(C)(C)SSC2(C)C)C(N)=O)C(N)=O)C(C)(C)SSC1(C)C [compound 25] (I: Ac-[Pen][NMeR]SDTL[Pen]HE[dK]-NH2 / II: Ac-[Pen][NMeR]SDTL[Pen]HE[dK]-NH2; disulfide I:1-I:7, II:1-II:7; linker I:10-II:10 via Diglycolyl)
  IC50: 10 to 25 nM

## CC(=O)N[C@@H]1C(=O)N(C)[C@@H](CCCNC(=N)N)C(=O)N[C@@H](CO)C(=O)N[C@@H](CC(=O)O)C(=O)N[C@@H]([C@@H](C)O)C(=O)N[C@@H](CC(C)C)C(=O)N[C@H](C(=O)N[C@@H](Cc2c[nH]cn2)C(=O)N[C@@H](Cc2ccc(O)cc2)C(=O)N[C@H](CCCCNC(=O)COCC(=O)NCCCC[C@@H](NC(=O)[C@H](Cc2ccc(O)cc2)NC(=O)[C@H](Cc2c[nH]cn2)NC(=O)[C@H]2NC(=O)[C@H](CC(C)C)NC(=O)[C@H]([C@@H](C)O)NC(=O)[C@H](CC(=O)O)NC(=O)[C@H](CO)NC(=O)[C@H](CCCNC(=N)N)N(C)C(=O)[C@@H](NC(C)=O)C(C)(C)SSC2(C)C)C(N)=O)C(N)=O)C(C)(C)SSC1(C)C [compound 26] (I: Ac-[Pen][NMeR]SDTL[Pen]HY[dK]-NH2 / II: Ac-[Pen][NMeR]SDTL[Pen]HY[dK]-NH2; disulfide I:1-I:7, II:1-II:7; linker I:10-II:10 via Diglycolyl)
  IC50: 100 to 500 nM

## CC(=O)N[C@@H]1C(=O)N(C)[C@@H](CCCNC(=N)N)C(=O)N[C@@H](CO)C(=O)N[C@@H](CC(=O)O)C(=O)N[C@@H]([C@@H](C)O)C(=O)N[C@@H](CC(C)C)C(=O)N[C@H](C(=O)N[C@H](Cc2c[nH]c3ccccc23)C(=O)N[C@@H](CCC(=O)O)C(=O)N[C@H](CCCCNC(=O)COCC(=O)NCCCC[C@@H](NC(=O)[C@H](CCC(=O)O)NC(=O)[C@@H](Cc2c[nH]c3ccccc23)NC(=O)[C@H]2NC(=O)[C@H](CC(C)C)NC(=O)[C@H]([C@@H](C)O)NC(=O)[C@H](CC(=O)O)NC(=O)[C@H](CO)NC(=O)[C@H](CCCNC(=N)N)N(C)C(=O)[C@@H](NC(C)=O)C(C)(C)SSC2(C)C)C(N)=O)C(N)=O)C(C)(C)SSC1(C)C [compound 28] (I: Ac-[Pen][NMeR]SDTL[Pen][dW]E[dK]-NH2 / II: Ac-[Pen][NMeR]SDTL[Pen][dW]E[dK]-NH2; disulfide I:1-I:7, II:1-II:7; linker I:10-II:10 via Diglycolyl)
  IC50: 50 to 100 nM

## CC(=O)N[C@@H]1C(=O)N(C)[C@@H](CCCNC(=N)N)C(=O)N[C@@H](CO)C(=O)N[C@@H](CC(=O)O)C(=O)N[C@@H]([C@@H](C)O)C(=O)N[C@@H](CC(C)C)C(=O)N[C@H](C(=O)N[C@H](Cc2ccccc2)C(=O)N[C@@H](CCC(=O)O)C(=O)N[C@H](CCCCNC(=O)COCC(=O)NCCCC[C@@H](NC(=O)[C@H](CCC(=O)O)NC(=O)[C@@H](Cc2ccccc2)NC(=O)[C@H]2NC(=O)[C@H](CC(C)C)NC(=O)[C@H]([C@@H](C)O)NC(=O)[C@H](CC(=O)O)NC(=O)[C@H](CO)NC(=O)[C@H](CCCNC(=N)N)N(C)C(=O)[C@@H](NC(C)=O)C(C)(C)SSC2(C)C)C(N)=O)C(N)=O)C(C)(C)SSC1(C)C [compound 30] (I: Ac-[Pen][NMeR]SDTL[Pen][dF]E[dK]-NH2 / II: Ac-[Pen][NMeR]SDTL[Pen][dF]E[dK]-NH2; disulfide I:1-I:7, II:1-II:7; linker I:10-II:10 via Diglycolyl)
  IC50: 100 to 500 nM

## CC(=O)N[C@@H]1C(=O)N(C)[C@@H](CCCNC(=N)N)C(=O)N[C@@H](CO)C(=O)N[C@@H](CC(=O)O)C(=O)N[C@@H]([C@@H](C)O)C(=O)N[C@@H](CC(C)C)C(=O)N[C@H](C(=O)N[C@@H](Cc2c[nH]c3ccccc23)C(=O)N(C)[C@@H](CCC(=O)O)C(=O)N[C@H](CCCCNC(=O)COCC(=O)NCCCC[C@@H](NC(=O)[C@H](CCC(=O)O)N(C)C(=O)[C@H](Cc2c[nH]c3ccccc23)NC(=O)[C@H]2NC(=O)[C@H](CC(C)C)NC(=O)[C@H]([C@@H](C)O)NC(=O)[C@H](CC(=O)O)NC(=O)[C@H](CO)NC(=O)[C@H](CCCNC(=N)N)N(C)C(=O)[C@@H](NC(C)=O)C(C)(C)SSC2(C)C)C(N)=O)C(N)=O)C(C)(C)SSC1(C)C [compound 31] (I: Ac-[Pen][NMeR]SDTL[Pen]W[NMeE][dK]-NH2 / II: Ac-[Pen][NMeR]SDTL[Pen]W[NMeE][dK]-NH2; disulfide I:1-I:7, II:1-II:7; linker I:10-II:10 via Diglycolyl)
  IC50: 50 to 100 nM

## CC(=O)N[C@@H]1C(=O)N(C)[C@@H](CCCNC(=N)N)C(=O)N[C@@H](CO)C(=O)N[C@@H](CC(=O)O)C(=O)N[C@@H]([C@@H](C)O)C(=O)N[C@@H](CC(C)C)C(=O)N[C@H](C(=O)N[C@H](Cc2cccc3ccccc23)C(=O)N[C@@H](CCC(=O)O)C(=O)N[C@H](CCCCNC(=O)COCC(=O)NCCCC[C@@H](NC(=O)[C@H](CCC(=O)O)NC(=O)[C@@H](Cc2cccc3ccccc23)NC(=O)[C@H]2NC(=O)[C@H](CC(C)C)NC(=O)[C@H]([C@@H](C)O)NC(=O)[C@H](CC(=O)O)NC(=O)[C@H](CO)NC(=O)[C@H](CCCNC(=N)N)N(C)C(=O)[C@@H](NC(C)=O)C(C)(C)SSC2(C)C)C(N)=O)C(N)=O)C(C)(C)SSC1(C)C [compound 34] (I: Ac-[Pen][NMeR]SDTL[Pen][d1Nal]E[dK]-NH2 / II: Ac-[Pen][NMeR]SDTL[Pen][d1Nal]E[dK]-NH2; disulfide I:1-I:7, II:1-II:7; linker I:10-II:10 via Diglycolyl)
  IC50: 25 to 50 nM

## CC(=O)N[C@@H]1C(=O)N(C)[C@@H](CCCNC(=N)N)C(=O)N[C@@H](CO)C(=O)N[C@@H](CC(=O)O)C(=O)N[C@@H]([C@@H](C)O)C(=O)N[C@@H](CC(C)C)C(=O)N[C@H](C(=O)N[C@H](Cc2ccc3ccccc3c2)C(=O)N[C@@H](CCC(=O)O)C(=O)N[C@H](CCCCNC(=O)COCC(=O)NCCCC[C@@H](NC(=O)[C@H](CCC(=O)O)NC(=O)[C@@H](Cc2ccc3ccccc3c2)NC(=O)[C@H]2NC(=O)[C@H](CC(C)C)NC(=O)[C@H]([C@@H](C)O)NC(=O)[C@H](CC(=O)O)NC(=O)[C@H](CO)NC(=O)[C@H](CCCNC(=N)N)N(C)C(=O)[C@@H](NC(C)=O)C(C)(C)SSC2(C)C)C(N)=O)C(N)=O)C(C)(C)SSC1(C)C [compound 35] (I: Ac-[Pen][NMeR]SDTL[Pen][d2Nal]E[dK]-NH2 / II: Ac-[Pen][NMeR]SDTL[Pen][d2Nal]E[dK]-NH2; disulfide I:1-I:7, II:1-II:7; linker I:10-II:10 via Diglycolyl)
  IC50: 100 to 500 nM

## CC(=O)N[C@H]1CSSC(C)(C)[C@@H](C(=O)N[C@@H](Cc2c[nH]c3ccccc23)C(=O)N[C@H](CCCCNC(=O)CCOCCOCCOCCOCCOCCOCCOCCOCCOCCOCCOCCOCCOCCOCCC(=O)NCCCC[C@@H](NC(=O)[C@H](Cc2c[nH]c3ccccc23)NC(=O)[C@H]2NC(=O)[C@H](CC(C)C)NC(=O)[C@H]([C@@H](C)O)NC(=O)[C@H](CC(=O)O)NC(=O)[C@H](CO)NC(=O)[C@H](CCCNC(=N)N)N(C)C(=O)[C@@H](NC(C)=O)CSSC2(C)C)C(N)=O)C(N)=O)NC(=O)[C@H](CC(C)C)NC(=O)[C@H]([C@@H](C)O)NC(=O)[C@H](CC(=O)O)NC(=O)[C@H](CO)NC(=O)[C@H](CCCNC(=N)N)N(C)C1=O [compound 36] (I: Ac-C[NMeR]SDTL[Pen]W[dK]-NH2 / II: Ac-C[NMeR]SDTL[Pen]W[dK]-NH2; disulfide I:1-I:7, II:1-II:7; linker I:9-II:9 via X4)
  IC50: 50 to 100 nM

## CC(=O)N[C@H]1CSSC(C)(C)[C@@H](C(=O)N[C@@H](Cc2c[nH]c3ccccc23)C(=O)N[C@H](CCCCNC(=O)CCOCCOCCOCCOCCOCCOCCOCCOCCOCCOCCOCCOCCOCCOCCOCCOCCOCCOCCOCCOCCOCCOCCOCCOCCOCCOCCC(=O)NCCCC[C@@H](NC(=O)[C@H](Cc2c[nH]c3ccccc23)NC(=O)[C@H]2NC(=O)[C@H](CC(C)C)NC(=O)[C@H]([C@@H](C)O)NC(=O)[C@H](CC(=O)O)NC(=O)[C@H](CO)NC(=O)[C@H](CCCNC(=N)N)N(C)C(=O)[C@@H](NC(C)=O)CSSC2(C)C)C(N)=O)C(N)=O)NC(=O)[C@H](CC(C)C)NC(=O)[C@H]([C@@H](C)O)NC(=O)[C@H](CC(=O)O)NC(=O)[C@H](CO)NC(=O)[C@H](CCCNC(=N)N)N(C)C1=O [compound 37] (I: Ac-C[NMeR]SDTL[Pen]W[dK]-NH2 / II: Ac-C[NMeR]SDTL[Pen]W[dK]-NH2; disulfide I:1-I:7, II:1-II:7; linker I:9-II:9 via X1)
  IC50: 100 to 500 nM
